These results are taken from patent publication US20260078103A1, “ISOQUINOLONES AS PI3K INHIBITORS” (OnKure, Inc., priority 2022, published 2026).

The term EC50 denotes the concentration needed to bring the measured effect to its halfway point. The term IC50 denotes the point on the concentration scale where inhibition reaches its midpoint.

Common to all, as to type: cell-based
Assay [1] deals with SKBR3 cells express WT PI3Ka. Briefly: In vitro cell proliferation, SKBR3 cells (CellTiter-Glo). The conditions noted are these: inhibition of proliferation. The essentials:
(§1)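 T47D cells in RPMI/10% FBS/insulin (0.2 units/mL) or SKBR3 in McCoys 5a/10% FBS, 1,500 cells/well, grown 72 h at 37 °C with 10-point compound dilutions. CellTiter-Glo luminescence; % inhibition normalised to 0.1% DMSO and 10 uM Alpelisib, EC50 from four-parameter curve fit.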

Assay [2] concerns T47D cells expressing mutant PI3Ka (H1047R). The assay can be described thus: In vitro cell proliferation, T47D cells (CellTiter-Glo). As to conditions: inhibition of proliferation, read-out: Avg T-47D EC50. The essentials: as §1
For orientation: Cellular ATP, detected with luciferase, serves as a proxy for viable cell number.

Assay [3] deals with phosphorylation of AKT (pAKT) in T47D cells expressing mutant PI3Ka (H1047R). Briefly: In vitro cell pAKT (Ser473) HTRF, T47D cells. The conditions noted are these: cellular pAKT, T47D cells, mutant PI3Ka (H1047R), 6 hours, read-out: Avg T-47D IC50. The essentials: (§2)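 Cells seeded on plates pre-stamped with 10-point compound dilutions, then grown 6 h at 37 °C (T47D in RPMI/10% FBS/insulin; SKBR3 in McCoy's 5a/10% FBS). Lysates read for pAKT Ser473 by HTRF after overnight antibody incubation. Inhibition normalised to 0.1% DMSO and 10 uM alpelisib; IC50 by four-parameter fit.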

Assay [4] deals with phosphorylation of AKT (pAKT) in SKBR3 cells express WT PI3Ka. The assay can be described thus: In vitro cell pAKT (Ser473) HTRF, SKBR3 cells. The conditions noted are these: cellular pAKT. The essentials:
as §2
(In general: Time-resolved FRET reads energy transfer from a long-lived donor to a nearby acceptor.)

Like-named read-outs stand apart in the source and are kept apart here.

Regarding `Cc1cc([C@@H](C)Nc2ccccc2C(=O)O)c2cc(-c3ccncc3)n(C)c(=O)c2c1` [Example 241], the EC50 in assay [1] (Homo sapiens, SK-BR-3, 72 h) is > 15 µM; in assay [2] (Homo sapiens, T47D, 72 h), 0.001 to 0.5 µM. The IC50 in assay [3] (Homo sapiens, T47D, 6 h) is 0.001 to 0.5 µM; in assay [4] (Homo sapiens, SK-BR-3, 6 h) it was > 15 µM.
As to `Cc1cc([C@@H](C)Nc2ccccc2C(=O)O)c2cc(N3CCC(C)(C#N)C3)n(C)c(=O)c2c1` (stereo partly drawn) [Example 243], the EC50 is > 15 µM in assay [1] (Homo sapiens, SK-BR-3, 72 h) and 0.001 to 0.5 µM in assay [2] (Homo sapiens, T47D, 72 h). Further, the IC50 was 0.001 to 0.5 µM in assay [3] (Homo sapiens, T47D, 6 h) and > 15 µM in assay [4] (Homo sapiens, SK-BR-3, 6 h).
For `Cc1cc([C@@H](C)Nc2ccccc2C(=O)O)c2cc(N3CCN(CC(F)(F)C4CC4)CC3)n(C)c(=O)c2c1` [Example 244], the EC50 is > 15 µM in assay [1] (72 hours) and 0.001 to 0.5 µM in assay [2] (72 hours). The results for the IC50 in assay [3] and in assay [4] (6 hours) were 0.001 to 0.5 µM and 2 to 15 µM, respectively.
Take `COc1ncc(-c2cc3c([C@@H](C)Nc4ccccc4C(=O)O)cc(C)cc3c(=O)n2C)cc1F` [Example 246]: the EC50 was > 15 µM in assay [1] (Homo sapiens, SK-BR-3, 72 h) and 2 to 15 µM in assay [2] (Homo sapiens, T47D, 72 h). In addition, the IC50 in assay [3] (Homo sapiens, T47D, 6 h) was 2 to 15 µM; in assay [4] (Homo sapiens, SK-BR-3, 6 h), > 15 µM.
As to `COCc1ncc(-c2cc3c([C@@H](C)Nc4ccccc4C(=O)O)cc(C)cc3c(=O)n2C)cc1F` [Example 247], the EC50 in assay [1] (Homo sapiens, SK-BR-3, 72 h) was > 15 µM; in assay [2] (Homo sapiens, T47D, 72 h) it was 0.001 to 0.5 µM. In addition, the IC50 in assay [3] (Homo sapiens, T47D, 6 h) is 0.001 to 0.5 µM; in assay [4] (Homo sapiens, SK-BR-3, 6 h), > 15 µM.
In the case of `Cc1cc([C@@H](C)Nc2ccccc2C(=O)O)c2cc(-c3cnc4c(c3)CCC4F)n(C)c(=O)c2c1` (stereo partly drawn) [Example 248], the EC50 in assay [1] (Homo sapiens, SK-BR-3, 72 h) was > 15 µM; in assay [2] (Homo sapiens, T47D, 72 h) it was 0.5 to 2 µM. Moreover, the IC50 was 0.001 to 0.5 µM in assay [3] (Homo sapiens, T47D, 6 h) and > 15 µM in assay [4] (Homo sapiens, SK-BR-3, 6 h).
Regarding `Cc1cc([C@@H](C)Nc2ccccc2C(=O)O)c2cc(N3CCOCC3)n(C)c(=O)c2c1` [Example 249], the EC50 in assay [1] (Homo sapiens, SK-BR-3, 72 h) is > 15 µM; in assay [2] (Homo sapiens, T47D, 72 h) it was 0.001 to 0.5 µM. For the same compound, the IC50 in assay [3] (Homo sapiens, T47D, 6 h) is 0.001 to 0.5 µM; in assay [4] (Homo sapiens, SK-BR-3, 6 h) it was > 15 µM.
For `Cc1cc([C@@H](C)Nc2ccccc2C(=O)O)c2cc(N3CCN(OC(C)C)CC3)n(C)c(=O)c2c1` [Example 250], the EC50 in assay [1] (Homo sapiens, SK-BR-3, 72 h) was > 15 µM; in assay [2] (Homo sapiens, T47D, 72 h), 0.001 to 0.5 µM. Further, the IC50 was 0.001 to 0.5 µM in assay [3] (Homo sapiens, T47D, 6 h) and > 15 µM in assay [4] (Homo sapiens, SK-BR-3, 6 h).
As for `Cc1cc([C@@H](C)Nc2ccccc2C(=O)O)c2cc(-c3cnc4c(c3)CCO4)n(C)c(=O)c2c1` [Example 252], the EC50 in assay [1] (Homo sapiens, SK-BR-3, 72 h) was > 15 µM; in assay [2] (Homo sapiens, T47D, 72 h), 0.001 to 0.5 µM. The IC50 in assay [3] (Homo sapiens, T47D, 6 h) was 0.001 to 0.5 µM; in assay [4] (Homo sapiens, SK-BR-3, 6 h), > 15 µM.
On to `Cc1cc([C@@H](C)Nc2ccccc2C(=O)O)c2cc(N3CCN(c4ncn(C)n4)CC3)n(C)c(=O)c2c1` [Example 253], for which the EC50 in assay [1] (Homo sapiens, SK-BR-3, 72 h) was > 15 µM; in assay [2] (Homo sapiens, T47D, 72 h), 0.5 to 2 µM. Moreover, the IC50 was 0.5 to 2 µM in assay [3] (Homo sapiens, T47D, 6 h) and > 15 µM in assay [4] (Homo sapiens, SK-BR-3, 6 h).
For the compound `Cc1cc([C@@H](C)Nc2ccccc2C(=O)O)c2cc(N3CCN(c4cn(C)nn4)CC3)n(C)c(=O)c2c1` [Example 254], the EC50 is > 15 µM in assay [1] (72 hours) and 2 to 15 µM in assay [2] (72 hours). The concentration for half-maximal inhibition (IC50) in assay [3] was 2 to 15 µM; in assay [4] (6 hours) it was > 15 µM.
Turning to `Cc1cc([C@@H](C)Nc2ccccc2C(=O)O)c2cc(N3CCN(c4nccnc4C)CC3)n(C)c(=O)c2c1` [Example 255], the EC50 lay within 2 to 15 µM in assay [1] (Homo sapiens, SK-BR-3, 72 h) and 0.001 to 0.5 µM in assay [2] (Homo sapiens, T47D, 72 h). In addition, the IC50 in assay [3] (Homo sapiens, T47D, 6 h) is 0.001 to 0.5 µM; in assay [4] (Homo sapiens, SK-BR-3, 6 h) it was 2 to 15 µM.
For `COc1ncccc1N1CCN(c2cc3c([C@@H](C)Nc4ccccc4C(=O)O)cc(C)cc3c(=O)n2C)CC1` [Example 256], the EC50 in assay [1] (72 hours) lay within 2 to 15 µM; in assay [2] (72 hours), 0.001 to 0.5 µM. In addition, the IC50 in assay [3] lay in the range of 0.001 to 0.5 µM; in assay [4] (6 hours) it was 2 to 15 µM.
As for `CCc1ncccc1N1CCN(c2cc3c([C@@H](C)Nc4ccccc4C(=O)O)cc(C)cc3c(=O)n2C)CC1` [Example 257], the EC50 in assay [1] (Homo sapiens, SK-BR-3, 72 h) was in the range of 2 to 15 µM; in assay [2] (Homo sapiens, T47D, 72 h), 0.001 to 0.5 µM. The IC50 in assay [3] (Homo sapiens, T47D, 6 h) lay within 0.001 to 0.5 µM; in assay [4] (Homo sapiens, SK-BR-3, 6 h) it was 2 to 15 µM.
As for `Cc1cc([C@@H](C)Nc2ccc(F)cc2C(=O)O)c2cc(N3CCN(CC(F)(F)F)CC3)n(C)c(=O)c2c1` [Example 259], the EC50 in assay [1] (72 hours) was > 15 µM; in assay [2] (72 hours) it was 0.001 to 0.5 µM. In addition, the IC50 in assay [3] lay within 0.001 to 0.5 µM; in assay [4] (6 hours), 2 to 15 µM.
